Test results published in patent US5663335A, “Immunosuppressive compounds and methods” (priority 1996, dated 1997).
Where two headings read alike, the source gives them in different places.

Columns and labels:
[1] = Cytotoxicity by MTT assay, reported with the IL-1 assay (Table I); type: cell-based; conditions: mouse, thymocytes, cytotoxic when toxicity greater than 25%
Protocol: Potential cytotoxicity of the test samples was assessed by the measurement of their effect on the reduction of MTT (3-[4,5-Dimethylthiazole-2-yl]-2,5-diphenyltetrazolium bromide) by cultured cells. MTT, a yellow-colored compound, is reduced by mitochondrial enzymes to form the purple crystalline reduction product formazane, providing an index of cellular respiration on viable cells as well as a sensitive assay for cytotoxicity (Mossmann, 1983).
The cytotoxicity was assessed in cultured human PBMC and mouse thymocytes. A stock solution of MTT (Sigma) at 5 mg/ml in phosphate buffered saline, pH 7.4, was prepared and stored in the dark at 4° C. PBMCs or thymocytes were cultured with various concentrations of test samples in flatbottom 96-well tissue culture plates (Costar) under the same conditions as those described above, but the stimulants (X-35 or IL-1+PHA) were replaced by appropriate medium. Untreated cells with medium alone and without the test samples were used as controls. After incubation for 21 hours, 25 μl of MTT solution was added to each well. After an additional three hours of incubation, the experiment was terminated by addition of a solution of 10% sodium dodecyl sulfate in 0.01N HCl. Following overnight incubation at 37° C. to solubilize the formazane crystals, optical density was determined at 570-650 nm in microplate reader. […]

[2] = system: spleen cells (C57BL/6 responder, irradiated Balb/C stimulator); assay: Mixed lymphocyte reaction (MLR): inhibition of responder spleen cell proliferation; type: cell-based; conditions: Mus musculus, 96 h, four days incubation
Protocol: Inhibition of cell proliferation in the mixed lymphocyte reaction (MLR) (Bradley, 1980; Mishell, 1980) is a measure of in vivo immunosuppression. Spleen cells from female C57BL/6 mice, the "responder" cells, were prepared and co-cultured alone or in the presence of varying concentrations of the test compounds, with irradiated spleen cells prepared from female Balb/C mice, the "stimulator" cells. Prior irradiation of the stimulator cells rendered them unable to proliferate. A sample of the responder cells was also irradiated for use as a control. The non-irradiated responder cells proliferate in the presence of the allogenic stimulator cells. After a 78-hour incubation, tritiated thymidine was added to the mixed cell cultures, and incorporation of the labeled nucleotide into DNA was measured as an index of cell proliferation. […]
In the assay, 4×10^5 cells of R were cocultured with 4×10^5 cells of Sx in 200 μl of medium in round bottom 96 well tissue culture plates. […] The spontaneous proliferation of R was also measured.
The culture plates were incubated at 37° C. in a 5% CO2 incubator for four days. […] Cells were then harvested and counted. […] Sample cpm was calculated as (R+Sx+sample)cpm-(R+Rx +sample)cpm; control cpm was calculated as (R+Sx)cpm-(R+Rx)cpm. Percent suppression of MLR activity was calculated as (1-sample cpm/control cpm)×100. […]

For `CC(C)[C@]12O[C@H]1[C@@H]1O[C@]13[C@]1(O[C@H]1C[C@H]1C4=C(CC[C@@]13C)C(=O)OC4)[C@@H]2O` [Triptolide, triptolide], the MCC [1] was greater than 12.5 µg/mL, the IC50 ([2]; read-out: IC50 (concentration of sample producing 50% suppression of proliferation), MLR assay) was 0.9 ng/mL and the IC50 ([2]; read-out: IC50, MLR assay) was 2.5 nM.
